What was measured:
[1] = test system: CD3/CD28 induced IL-2 in human T-Blasts; experiment: T-Blasts CD3/CD28 induced IL-2 assay; assay type: cell-based; settings: read-out: CD3/CD28-stimulated IL2 in T-blasts EC50
In short: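 IL-2 in supernatants read after 24 h 37° C stimulation of human PHA T-blasts (2×10^5/well) with anti-CD3/anti-CD28 at 5 μg/mL final. Duplicate eight-point, 1/3-step compound series added 30 min before stimulus; residual cells checked by MTT for toxicity.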

PKCθ = target: T1, PKCθ (Homo sapiens, UniProt Q04759); experiment: In vitro enzyme assay (time-resolved fluorescence kinase assay), PKCθ, 100 μM ATP; assay type: biochemical
T1 construct: His6; purchased Millipore; host or cells: baculovirus in Sf21 cells
T1 sequence (Q04759 whole entry): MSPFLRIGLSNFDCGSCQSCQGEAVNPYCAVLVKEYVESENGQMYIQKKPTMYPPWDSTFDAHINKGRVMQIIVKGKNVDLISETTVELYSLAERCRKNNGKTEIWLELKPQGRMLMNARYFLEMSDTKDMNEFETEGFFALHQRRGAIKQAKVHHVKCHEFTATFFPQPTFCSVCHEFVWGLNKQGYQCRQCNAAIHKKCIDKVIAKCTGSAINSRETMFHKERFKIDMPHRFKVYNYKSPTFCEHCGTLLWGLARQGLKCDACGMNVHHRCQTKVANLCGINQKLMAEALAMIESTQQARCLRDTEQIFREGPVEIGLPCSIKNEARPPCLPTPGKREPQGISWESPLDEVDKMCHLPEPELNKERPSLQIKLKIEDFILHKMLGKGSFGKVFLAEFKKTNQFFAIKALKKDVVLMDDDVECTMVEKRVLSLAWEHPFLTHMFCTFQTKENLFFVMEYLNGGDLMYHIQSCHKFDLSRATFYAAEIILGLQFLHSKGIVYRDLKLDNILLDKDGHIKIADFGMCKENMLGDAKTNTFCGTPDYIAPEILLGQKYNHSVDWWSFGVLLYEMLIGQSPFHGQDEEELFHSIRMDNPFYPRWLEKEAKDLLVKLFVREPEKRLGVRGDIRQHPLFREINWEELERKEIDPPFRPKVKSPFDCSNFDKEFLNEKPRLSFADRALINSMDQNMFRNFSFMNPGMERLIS
In short: (§1)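 Read-out was time-resolved fluorescence, corrected for a minus-enzyme blank and converted to percent activity relative to enzyme without drug. They were stopped with EDTA.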

PKCα = target: T2, PKCα (Homo sapiens, UniProt P17252); experiment: In vitro enzyme assay (time-resolved fluorescence kinase assay), PKCα, 100 μM ATP; assay type: biochemical; settings: 100 μM ATP; read-out: PKCα enzyme IC50
T2 construct: His6; purchased Millipore; host or cells: baculovirus in Sf21 cells
In short: as §1

Row | Structure (SMILES) | EC50 [1] | IC50 (PKCθ) | IC50 (PKCα)
1 | C[C@@H]1C(=O)NN=C2COc3cc(-c4ccccc4F)c(N4CCNC[C@@H]4C)cc3N21 [Example 224] | < 250 nM | < 250 nM | 250 to 1000 nM
2 | CC1C(=O)NN=C2COc3cc(-c4cccc(F)c4)c(NC4CNC4)cc3N21 (racemic) [Example 46] | < 250 nM | < 250 nM | 1000 to 10000 nM
3 | Cc1cn(C2(C)CNC2)c2cc3c(cc12)OCC1=NNC(=O)[C@@H](C)N13 [Example 157] | < 250 nM | < 250 nM | 250 to 1000 nM
4 | C[C@@H]1C(=O)NN=C2COc3cc(-c4ccccc4F)c([C@@H](C)C4(C)CNC4)cc3N21 [Example 146, (R)-7-(2-Fluoro-phenyl)-4-methyl-6-[(R)-1-(3-methyl-azetidin-3-yl)-ethyl]-2,10-dihydro-9-oxa-1,2,4a-triaza-phenanthren-3-one] | < 250 nM | < 250 nM | < 250 nM
5 | CC1C(=O)NN=C2COc3cc(C(F)(F)F)c(C4CCNCC4)cc3N21 (stereo not drawn) [Example 120, 1-Methyl-9-(piperidin-4-yl)-8-(trifluoromethyl)-3,5-dihydrobenzo[5,6][1,4]oxazino[3,4-c][1,2,4]triazin-2(1H)-one trifluoroacetic acid] | 250 to 1000 nM | < 250 nM | 1000 to 10000 nM
6 | Cc1cc2c(cc1NC1CN(C)C1)N1C(=NNC(=O)C1C)CO2 (stereo not drawn) [Example 125, 1,8-Dimethyl-9-((1-methylazetidin-3-yl)amino)-3,5-dihydrobenzo[5,6][1,4]oxazino[3,4-c][1,2,4]triazin-2(1H)-one trifluoroacetic acid] | 250 to 1000 nM | < 250 nM | 1000 to 10000 nM
7 | C[C@@H]1C(=O)NN=C2COc3cc([C@@H](C)C(F)(F)F)c(NC4CNC4)cc3N21 [Example 61] | 250 to 1000 nM | < 250 nM | 1000 to 10000 nM
8 | C[C@@H]1C(=O)NN=C2COc3cc(C4CC4)c(NC4CNC4)cc3N21 (single isomer, unassigned) [Example 64-1, trifluoroacetic acid] | < 250 nM | < 250 nM | 1000 to 10000 nM
9 | CC1C(=O)NN=C2COc3cc(-c4ccc(F)cc4)c(NC4CNC4)cc3N21 (racemic) [Example 50] | < 250 nM | < 250 nM | 1000 to 10000 nM
10 | C[C@@H]1C(=O)NN=C2COc3cc(-c4cccc5ccccc45)c(NC4CNC4)cc3N21 [Example 10] | < 250 nM | < 250 nM | 1000 to 10000 nM
11 | C[C@H]1C(=O)NN=C2COc3cc(F)c(NC4CNC4)cc3N21 (single isomer, unassigned) [Example 56-1, trifluoroacetic acid] | 1000 to 10000 nM | 250 to 1000 nM | 1000 to 10000 nM
12 | C[C@@H]1C(=O)NN=C2COc3cc(-c4ccccc4F)c(N4CCN[C@@H](C)C4)cc3N21 [Example 225] | < 250 nM | < 250 nM | 250 to 1000 nM
13 | C[C@@H]1C(=O)NN=C2COc3cc(-c4ccc(F)cc4F)c(N(C)C4(C)CN(C)C4)cc3N21 [Example 178] | < 250 nM | < 250 nM | 250 to 1000 nM
14 | Cc1ccccc1-c1cc2c(cc1N(C)C1(C)CN(C)C1)N1C(=NNC(=O)C1C)CO2 (stereo not drawn) [Example 88] | < 250 nM | < 250 nM | < 250 nM
15 | C[C@@H]1C(=O)NN=C2COc3cc(F)c(NC4CNC4)cc3N21 (single isomer, unassigned) [Example 56-2, trifluoroacetic acid] | < 250 nM | < 250 nM | 1000 to 10000 nM
16 | CC1C(=O)NN=C2COc3cc(Nc4ccccc4)c(NC4CNC4)cc3N21 (stereo not drawn) [Example 128, 6-(Azetidin-3-ylamino)-4-methyl-7-phenylamino-2,10-dihydro-9-oxa-1,2,4a-triaza-phenanthren-3-one trifluoroacetic acid] | 250 to 1000 nM | < 250 nM | 1000 to 10000 nM
17 | CC1C(=O)NN=C2COc3cc(-c4ccccc4Cl)c(NC4CNC4)cc3N21 (racemic) [Example 44] | < 250 nM | < 250 nM | 1000 to 10000 nM

— patent US9115151B2, “Substituted 2,10-dihydro-9-oxa-1,2,4A-triazaphenanthren-3-ones and uses thereof” (AbbVie Inc., priority 2012, dated 2015)
